Data reported in publication PMC9964544, “Evidence of Insulin-Sensitizing and Mimetic Activity of the Sesquiterpene Quinone Avarone, a Protein Tyrosine Phosphatase 1B and Aldose Reductase Dual Targeting Agent from the Marine Sponge Dysidea avara” (Pharmaceutics, 2023).

How the values were obtained:
human recombinant AKR1B1 = target: T1, human recombinant AKR1B1 (Homo sapiens, UniProt P15121); test: AKR1B1 inhibition assay with L-idose as substrate, NADPH oxidation (IC50); type: biochemical; settings: 10 mU AKR1B1, 1.6 mM L-idose, 37 °C; IC50 ± SD
T1 construct: made in house
Protocol: (§1) The purification of human recombinant AKR1B1 was performed as previously described. […] The purified enzyme, stored at −80 °C in 10 mM sodium phosphate buffer pH 7.0 containing 2 mM DTT and 30% (w/v) glycerol, was extensively dialyzed against 10 mM sodium phosphate buffer pH 7.0 before use. […] The fractions containing PTP1B were collected, concentrated, and injected into a Superdex G75 column equilibrated with Tris-HCl buffer pH 8.0 containing 150 mM NaCl and 1 mM mercaptoethanol. The fractions containing PTP1B were collected and concentrated; the purity of preparation was evaluated using SDS-PAGE. The PTP1B preparation was split into fractions of 0.5 mL volume; each fraction was stored at −80 °C.
(§2) The standard assay mixture (final volume 0.7 mL) was contained in 0.25 M sodium phosphate buffer pH 6.8, 0.18 mM NADPH, 0.4 M ammonium sulfate, 0.5 mM EDTA, and 4.7 mM GAL. One unit of enzyme activity is the amount of enzyme that catalyzes the conversion of 1 µmol of substrate/min in the above assay conditions. The same assay conditions were adopted in the inhibition studies using L-idose as the substrate at the indicated concentrations. PTP1B activity was determined using p-nitrophenylphosphate (pNPP) as the synthetic substrate. The pNPP was dissolved in 0.075 M ββ-dimethylglutarate buffer, pH 7.0, containing 1 mM dithiothreitol. Each assay was carried out at 37 °C in 1 mL of assay buffer. The reactions were started by diluting an aliquot of PTP1B preparation in the assay buffer; after 30 min, the reactions were stopped by adding 2 mL of 0.2 M KOH solution. The amount of p-nitrophenol released was determined spectrophotometrically, reading the absorbance of solutions at 400 nm (ε400nm = 18 mM^−^1cm^−^1).

[1] = test system: human microvascular endothelial cells (HMEC-1); set-up: method as in PMID 32075136; settings: ref [19]; read-out: IC50 cytotoxicity HMEC-1; cited from earlier work
C2C12 cells = test: Akt phosphorylation in C2C12 cells by Western blot; type: cell-based; settings: 30 min, serum-starved C2C12
Protocol: To evaluate the impact of avarone (2) on the insulin signaling pathway, C2C12 cells were plated on P35 dishes and grown until 70% confluence. Then, cells were washed with phosphate-buffered saline (PBS) and incubated for 24 h in the presence of a starvation medium (DMEM high glucose containing 2 mM glutamine, 100 U/mL of penicillin, and 100 μg/mL of streptomycin). After this time, cells were stimulated for 30 min with 10 nM insulin (Humulin R, Ely Lilly, Italy) with avarone (2) or the insulin-avarone combination. […] Phosphorylation levels of the insulin receptor β chain and of the kinase Akt were evaluated using specific antibodies: IR β subunit, clone CT-3 (MABS65) was from Santa Cruz Biotechnology (Santa Cruz, CA, USA); pIR β subunit, Y1162/1163 (sc-25103-R) was from Merck-Millipore (Burlington, MA, USA). […] Quantitation of the images obtained was carried out using iBright Analysis Software (Thermo Fisher Scientific 168 Third Avenue Waltham, MA, USA, 02451). Glucose uptake was evaluated as previously described. […] Intrinsic and 2-NBDG-derived cell fluorescences were determined using a flow cytometer (FACSCanto II, BD Biosciences, San Jose, CA, USA). […] Quantitative analysis was carried out using FlowJo software (FlowJo^TM v10. BD FlowJo™ Software for Windows Version 10. Ashland, OR: Becton, Dickinson and Company; 2021). […]

Human PTP1B = target: T2, Human PTP1B (Homo sapiens, UniProt P18031); test: PTP1B inhibition assay with pNPP as substrate (IC50); type: biochemical; set-up: polyHis (N); made in house; settings: 2.5 mM pNPP, 37 °C; IC50 ± SD
T2 sequence (P18031 1-302): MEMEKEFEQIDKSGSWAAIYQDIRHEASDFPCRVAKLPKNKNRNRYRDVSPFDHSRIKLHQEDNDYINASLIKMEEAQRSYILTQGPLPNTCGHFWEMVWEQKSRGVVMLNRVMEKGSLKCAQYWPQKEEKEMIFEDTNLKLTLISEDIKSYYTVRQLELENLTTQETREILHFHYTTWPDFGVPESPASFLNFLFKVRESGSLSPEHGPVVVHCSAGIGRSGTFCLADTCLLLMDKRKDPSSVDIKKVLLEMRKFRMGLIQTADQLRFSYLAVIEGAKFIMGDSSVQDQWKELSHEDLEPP
Protocol: as §1, §2

CC1=CCC[C@H]2[C@](C)(CC3=CC(=O)C=CC3=O)[C@@H](C)CC[C@]12C [avarone (2), avarone]
IC50 (human recombinant AKR1B1): 0.078 ± 0.017 µM | IC50 [1]: 62.2 µM | Akt phosphorylation levels, insulin-avarone combination (C2C12 cells; 25 µM avarone + 10 nM insulin): values higher than those observed after treatment with insulin alone | Akt phosphorylation levels (C2C12 cells; 25 µM avarone alone): increase in Akt phosphorylation levels similar to that induced by insulin | IC50 (Human PTP1B): 6.7 ± 0.6 µM
